Here are results for 32 molecules from article PMC6613765 (Journal of Virology, 2019).

Counter-ions that a name gives are not always drawn. Like-named read-outs stand apart in the source and are kept apart here. Bounds are passed on as bounds.

Series [1] relates to MHV-A59. Briefly: microbe, parasite or virus in culture. Conditions: Murine coronavirus, 72 h, read-out: MHV-A59 EC50.
Series [2] has as its system HCoV-NL63. Briefly: microbe, parasite or virus in culture. Conditions: Human coronavirus NL63, LLC-MK2, 72 h, read-out: HCoV-NL63 EC50.
A short description of series [3]: in vitro. Conditions: mouse.
Series [4] relates to HCoV-OC43-WT. Also on record: species or system BALB/c mice.
Series [5] has as its system HCoV-NL63. Conditions: for EC50: read-out: HCoV-NL63 EC50.
The test system of series [6] is MERS-CoV. Conditions: for EC50: read-out: MERS-CoV EC50.
Series [7] deals with DBT cells.
For series [8], the system named is BHK-21 cells.
The subject of series [9] is Vero E6 cells.
Series [10] has as its system MHV-A59. Conditions: for EC50: read-out: MHV-A59 EC50.
The subject of series [11] is HCoV-OC43-WT. Conditions: for EC50: read-out: HCoV-OC43 EC50.
Series [12] deals with LLC-MK2 cells.
Series [13] deals with pseudotyped MERS-CoV (HIV-1 backbone, spike protein of MERS-CoV). Type of series: cell-based.
The subject of series [14] is four CoVs (HCoV-OC43, HCoV-NL63, MERS-CoV, MHV-A59). Put plainly: organism not typed. It counts as cell-based. Conditions: read-out: EC50 values against all CoVs.
Series [15] concerns rOC43-ns2Del-Rluc. Type of series: in vivo, BALB/c mice.

As for `O=C(/C=C/c1ccccc1)c1ccc(O)cc1` [4'-Hydroxychalcone], the results for the EC50 in series [1] and in series [2] were 9.75 µM and 7.25 µM, respectively. This molecule also displayed a CC50 in [3] above 20 µM.

Take `C=CCc1ccccc1OCC(O)CNC(C)C` (centres unmarked) [Alprenolol]: the EC50 (as a rule, the concentration giving half of the maximal effect) was determined as 14 µM in series [1] and 11.9 µM in series [2]. Also, in series [3], the CC50 is above 20 µM.

For the molecule `CCCCCC[C@H]1C(=O)O[C@H](C)[C@H](NC(=O)c2cccc(NC=O)c2O)C(=O)O[C@@H](C)[C@@H]1OC(=O)CC(C)C` [Antimycin A], the results for the EC50 in series [1] and in [2] were 5.42 µM and 6.05 µM, respectively. The CC50 in [3] was 3.98 µM.

`COc1cc2c3cc1Oc1c(OC)c(OC)cc4c1[C@@H](Cc1ccc(O)c(c1)Oc1ccc(cc1)C[C@@H]3N(C)CC2)N(C)CC4` [Berbamine]: the figures for the EC50 in [1] and in series [2] were 10.9 µM and 9.46 µM, respectively. Further, the CC50 in [3] is above 20 µM.

For `CN(C)CCN(Cc1ccc(Cl)cc1)c1ccccn1` [Chloropyramine], the EC50 in series [1] was found to be 2.42 µM; in series [2], 14.2 µM. The CC50 in series [3] is above 20 µM.

In the case of `CCN(CC)CCCC(C)Nc1ccnc2cc(Cl)ccc12` (centres unmarked) [Chloroquine], the half-maximal effective concentration (EC50) in series [1] was determined as 15.9 µM; in series [2], 4.89 µM. For the same molecule, the “antiviral activity in vivo, positive control” value in series [4] (mouse) is “showed antiviral activity”. In series [3], this molecule showed a CC50 above 20 µM.

Regarding `C[C@H]1[C@H]2CC[C@H]3[C@@H]4CC=C5C[C@@H](N(C)C)CC[C@]5(C)[C@H]4CC[C@]23CN1C` [Conessine], the EC50 in [1] amounted to 11.5 µM; in series [2], 10.8 µM. This molecule had a CC50 in [3] above 20 µM.

Turning to `C[C@@H]1C[C@@H]([C@H](O)CC2CC(=O)NC(=O)C2)C(=O)[C@@H](C)C1` [Cycloheximide], the EC50 in [1] amounted to 5.21 µM; in [2], 2.64 µM. Besides, the CC50 in series [3] stood at 3.19 µM.

Regarding `CNCCCN1c2ccccc2CCc2ccccc21` [Desipramine], the 50% effective concentration (EC50) is 8.75 µM in series [1] and 6.68 µM in [2]. This molecule also had a CC50 in series [3] above 20 µM.

For the molecule `CC(=O)Oc1cc2c(c(C)c1OC(C)=O)CC=C1[C@@]2(C)CC[C@@]2(C)C3C[C@](C)(C(=O)O)CC[C@]3(C)CC[C@]12C` (some centres unmarked) [Dihydrocelastryl diacetate], the EC50 amounted to 0.65 µM in series [5], 10.6 µM in series [6], 4.24 µM in series [10] and 1.71 µM in series [11]. The CC50 in series [7], in [8], in series [9] and in series [12] was above 20 µM each time.

Take `O=C(Nc1ccccc1)OCC(CN1CCCCC1)OC(=O)Nc1ccccc1` (centres unmarked) [Diperodon]: the values for the half-maximal effective concentration (EC50) in [1] and in series [2] were 1.98 µM and 4.91 µM, respectively. The molecule further returned a CC50 in [3] of 14.5 µM.

Take `COc1cc2nc(N3CCN(C(=O)C4COc5ccccc5O4)CC3)nc(N)c2cc1OC` (centres unmarked) [Doxazosin mesylate]: the EC50 in series [1] was found to be 14.5 µM; in series [2], 14 µM. The CC50 in series [3] is above 20 µM.

`CC[C@H]1CN2CCc3cc(OC)c(OC)cc3[C@@H]2C[C@@H]1C[C@H]1NCCc2cc(OC)c(OC)cc21` [Emetine]: the EC50 is 0.12 µM in series [1], 1.43 µM in [2] and below 5 µM in series [14]. Further, in series [6], the “SI (CC50/EC50), MERS-CoV” value worked out at 9.06. The CC50 in series [8] (hamster) came out at 2.69 µM; in series [3], 3.51 µM; in [12] (rhesus monkey), 3.63 µM. Further, the “luciferase activity reduced compared with control” value in series [13] is recorded as 50 fold.

As for `CCCCCCOc1ccccc1C(N)=O` [Exalamide], the half-maximal effective concentration (EC50) in series [1] was 16.4 µM; in series [2], 17.5 µM. In series [3], this molecule came in with a CC50 above 20 µM.

`COc1ccc2c(c1)[nH]c1c(C)nccc12` [Harmine]: the EC50 in series [1] was 13.8 µM; in series [2] it was 13.5 µM. The CC50 in [3] was above 20 µM.

For `CCN(CC)CCNc1ccc(CO)c2sc3ccccc3c(=O)c12` [Hycanthone], the EC50 amounted to 5.78 µM in series [1] and 5.76 µM in series [2]. In addition, the CC50 in series [3] is 4.19 µM.

With `O[C@H]1[C@H]2c3cc4c(cc3CN3CCC(=C[C@@H]1O)[C@H]23)OCO4` [Lycorine], the concentration for a half-maximal effect (EC50) in series [1] is 0.31 µM; in series [2], 0.47 µM. The CC50 in [8] (hamster) worked out at 4.37 µM; in series [3], 3.51 µM; in series [12] (rhesus monkey) it was 3.81 µM. The “HCoV-OC43 nucleocapsid protein in mouse brain coronal sections (IHC)” value in series [4] (in vivo) was “present only in the PBS-DMSO-treated group, not in the lycorine-treated group”. For the same molecule, in [4] (mouse, in vivo), the “viral loads in the brain and spinal cord” value is “under the limit of detection”. The “SI (CC50/EC50), HCoV-OC43” value in [11] is given as 29.13. In [15] (15 mg/kg daily, 2, 3 and 4 days postinoculation), the “bioluminescence signal in the brain” value is “no signal was detected”. Besides, in [15] (mouse brain, 72 h postinoculation, 15 mg/kg), the “Rluc activity in PBS-DMSO-treated mice relative to treated mice” value is ~2 × 10^5 fold.

Consider `COc1c(C)c2c(c(O)c1C/C=C(\C)CCC(=O)OCCN1CCOCC1)C(=O)OC2` [Mycophenolate mofetil], for which the EC50 is 0.27 µM in [1], 0.23 µM in series [2] and below 5 µM in [14]. Moreover, the CC50 is 3.43 µM in series [8] (hamster), 3.33 µM in series [3] and 3.01 µM in series [12] (rhesus monkey).

For the molecule `COc1c(C)c2c(c(O)c1C/C=C(\C)CCC(=O)O)C(=O)OC2` [Mycophenolic acid], the “SI (CC50/EC50), HCoV-NL63” value in [5] worked out at 19.11. The figures for the EC50 in [1], in series [2] and in series [14] were 0.17 µM, 0.18 µM and below 5 µM, respectively. Besides, the figures for the CC50 in [8] (hamster), in series [3] and in series [12] (rhesus monkey) were 3.55 µM, 4.18 µM and 3.44 µM, respectively.

Consider `CC[C@H]1/C=C/C=C/C[C@@H](C)[C@H](O)[C@@](C)(O)C(=O)[C@@H](C)[C@H](O)[C@@H](C)C(=O)[C@@H](C)[C@H](O)[C@@H](C)/C=C/C(=O)O[C@@H]2[C@H](C)[C@H](CC1)O[C@]1(CC[C@H](C)[C@H](C[C@@H](C)O)O1)[C@H]2C` [Oligomycin], for which the EC50 in series [1] was 6.43 µM; in [2] it was 2.63 µM. Besides, in [3], the CC50 was 6.78 µM.

Turning to `COc1ccc(Cc2nccc3cc(OC)c(OC)cc23)cc1OC` [Papaverine], the EC50 was 11.5 µM in series [1] and 7.32 µM in series [2]. Moreover, the CC50 in series [3] worked out at 12.4 µM.

On to `Nc1ccc(/N=N/c2ccccc2)c(N)n1` [Phenazopyridine], for which the EC50 in [1] is 0.77 µM; in series [2], 2.02 µM; in series [14], below 5 µM. The CC50 in [8] (hamster), in series [3] and in series [12] (rhesus monkey) was above 20 µM throughout. Also, the “SI (CC50/EC50), MHV-A59” value in [10] is above 25.97.

Regarding `CC(=O)[O][Hg][c]1ccccc1` [Phenylmercuric acetate], the EC50 in [5] was determined as 6.79 µM; in series [6], 6.44 µM; in series [10], 6.81 µM; in [11] it was 2.17 µM. Further, the CC50 in [7] amounted to 5.97 µM; in series [8] it was 5.35 µM; in series [9], 5.39 µM; in series [12], 5.47 µM.

`COC(=O)[C@]1(C)CC[C@]2(C)CC[C@]3(C)C4=CC=C5C(=CC(=O)C(O)=C5C)[C@]4(C)CC[C@@]3(C)[C@@H]2C1` [Pristimerin]: the EC50 amounted to 9.17 µM in [1] and 1.63 µM in series [2]. The molecule also gave a CC50 in series [3] above 20 µM.

`CN(C)CCCN1c2ccccc2Sc2ccccc21` [Promazine]: the half-maximal effective concentration (EC50) in series [1] was determined as 0.51 µM; in series [2] it was 1.37 µM. The molecule further gave a CC50 in series [3] above 20 µM.

As for `Cc1cc(/C=C/c2ccc3cc(N(C)C)ccc3[n+]2C)c(C)n1-c1ccccc1` [Pyrvinium pamoate], the EC50 in [2] is 3.35 µM; in series [14], below 5 µM.

For `CC[C@@H](C(=O)[C@@H](C)[C@@H](O)[C@H](C)[C@@H]1O[C@@H]([C@@H](CC)C(=O)O)CC[C@@H]1C)[C@H]1O[C@]2(C=C[C@@H](O)[C@]3(CC[C@@](C)([C@H]4CC[C@](O)(CC)[C@H](C)O4)O3)O2)[C@H](C)C[C@@H]1C` [Salinomycin sodium], the EC50 stood at 5.16 µM in series [1] and 5.71 µM in series [2]. In series [3], this molecule displayed a CC50 of 2.45 µM.

For the molecule `COc1ccc2cc1Oc1ccc(cc1)C[C@H]1c3cc(c(OC)cc3CCN1C)Oc1c(OC)c(OC)cc3c1[C@H](C2)N(C)CC3` [Tetrandrine], the EC50 in series [1] was determined as 4.81 µM; in [2] it was 2.05 µM. Also, the CC50 in series [3] was above 20 µM.

As to `Clc1ccccc1CN1CCc2sccc2C1` [Ticlopidine], the EC50 stood at 14.3 µM in [1] and 15.7 µM in [2]. For the same molecule, the CC50 in [3] is above 20 µM.

Consider `CCN(CC)CCOc1ccc2c(c1)C(=O)c1cc(OCCN(CC)CC)ccc1-2` [Tilorone], for which the concentration giving a half-maximal response (EC50) was found to be 16.1 µM in [1] and 6.89 µM in series [2]. In addition, the CC50 in [3] is above 20 µM.

Consider `CC(C)[C@@H]1NC(=O)[C@H](C)OC(=O)[C@@H](C(C)C)NC(=O)[C@@H](C(C)C)OC(=O)[C@H](C(C)C)NC(=O)[C@H](C)OC(=O)[C@@H](C(C)C)NC(=O)[C@@H](C(C)C)OC(=O)[C@H](C(C)C)NC(=O)[C@H](C)OC(=O)[C@@H](C(C)C)NC(=O)[C@@H](C(C)C)OC1=O` [Valinomycin], for which the results for the half-maximal effective concentration (EC50) in series [1] and in [2] were 6.78 µM and 1.89 µM, respectively. In series [3], this molecule gave a CC50 of 5.11 µM.

With Monensin sodium, the EC50 was 1.54 µM in series [5]; 3.27 µM in series [6]; 0.18 µM in [10]; below 5 µM in series [14]; 3.81 µM in series [11].
